In patent US5084455A, “Novel indole carboxamides” (Roussel Uclaf, priority 1985, dated 1992):
Where two headings read alike, the source gives them in different places.

Key:
[1] = system: arterial blood pressure; assay: Hypotensive activity on anaesthetized normotensive rats; type: in vivo, Sprague-Dawley male rats; settings: 10 mg/kg, jugular vein injection
Description: Sprague-Dawley male rats (CR) were anaesthetized intraperitoneally with pentabarbital sodium (60 mg/kg) and a jugular vein was catheterized for the injection of the product, and a cartoid artery was catheterized for recording the arterial blood pressure. The test product was dissolved in 10% ethanol and then injected in a volume of 1 ml/kg.

[2] = system: disturbances of the cardiac rhythm; assay: Anti-arrhythmic action in the rat (aconitine perfusion); type: in vivo, male rats
Description: Male rats weighing 300-350 g were anesthetized intra-peritoneally with 1.20 g/kg of urethane, then tracheotomized and submitted to artificial respiration (40-50 breaths of 3 ml/minute). Needles were implanted subcutaneously so as to record the electro-cardiogram of the rats on the DII derivation signal. The products under test were administered intravenously or orally.
Five minutes after the administration of the product intravenously or 1 hour after administration orally, the jugular vein of the rats was perfused with 10 μg/minute from 0.2 ml of a solution of aconitine, and the time of appearance of disturbances of the cardiac rhythm was noted, (10 μg of aconitine corresponding to a perfusion of 0.2 ml of solution). The results are expressed as a percentage of the extension of the time of appearance of the disturbances of the cardiac rhythm as compared with controls, and as a function of the dose of the product under test.

[3] = molecular target: T1, beta1-adrenergic receptors (Rattus norvegicus, UniProt P18090); assay: Affinity for beta1-adrenergic receptors ([3H]dihydroalprenolol binding, brain cortex); settings: relative to propanolol, [3H]dihydroalprenolol 10^-9 M
T1 construct: 10 cortexes removed from the brains of male rats weighing 150 g on average were homogenized; from tissue; host or cells: rat brain cortex, crude membrane fraction
T1 sequence (P18090 whole entry): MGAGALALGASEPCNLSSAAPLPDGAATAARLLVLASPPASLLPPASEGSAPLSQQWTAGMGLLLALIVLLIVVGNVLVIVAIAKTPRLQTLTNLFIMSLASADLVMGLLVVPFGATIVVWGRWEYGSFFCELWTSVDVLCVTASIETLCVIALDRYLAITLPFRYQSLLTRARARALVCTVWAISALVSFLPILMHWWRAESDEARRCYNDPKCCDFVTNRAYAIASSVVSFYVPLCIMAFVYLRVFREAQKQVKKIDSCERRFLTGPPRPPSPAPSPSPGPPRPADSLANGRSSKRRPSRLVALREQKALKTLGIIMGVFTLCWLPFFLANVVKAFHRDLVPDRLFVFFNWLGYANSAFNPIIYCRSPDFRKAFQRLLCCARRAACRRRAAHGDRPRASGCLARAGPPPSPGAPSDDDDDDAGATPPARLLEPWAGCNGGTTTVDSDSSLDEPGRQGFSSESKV
Description: (§1) The technique is modelled on that of Mohler et al [Science., Vol. 198, p. 849-851 (1977)]. 10 cortexes removed from the brains of male rats weighing 150 g on average were homogenized in 90 ml of 0.32M sucrose and after centrifugation of the homogenized mixture at 1,000 g for 20 minutes at 0° C., the supernatant was centrifuged at 30,000 g for 15 minutes at 0° to +4° C. The pellet was suspended in 120 ml of 50 mM Tris-HCl buffer pH 7.7, and centrifuged at 30,000 g for 15 minutes at 0° to +4° C. The new pellet was suspended in 480 ml of 50 mM Krebs Tris-HCl buffer pH 7.7. 2 ml of the suspension were then incubated for 10 minutes at 37° C. in the presence of [^3 H] dihydroalprenolol at a concentration of 10^-9 M, i) alone, ii) with increasing concentrations of the test product or iii) to determine the non-specific binding, with non-radioactive propanolol at a concentration of 10^-5 M. The incubated suspensions were filtered on Whatman GF/C, and the filters were washed three times with 5 ml of Krebs Tris-HCl buffer pH 7.7 at 0° C.
The radioactivity of the filters was measured by liquid scintillation. The affinity of the test product for beta1 -adrenergic receptors is given relative to propanolol as the reference product.
(§2) CD=concentration of propanolol inhibiting 50% of the specific binding of [^3 H]dihydroalprenolol.
CX=concentration of the test product inhibiting 50% of the specific binding of […].
The relative affinity is given by the relation [formula]

[4] = system: mice; assay: Study of the acute toxicity; type: in vivo; settings: oral
Description: The lethal doses LD50 of the different compounds tested were evaluated after administration orally to mice. The maximum dose not causing any mortality in 8 days was called the LD0 and the following results were obtained.

[5] = system: Rat caudal arteries; assay: Test of calcium-antagonistic activity in vitro (K+ depolarized caudal arteries); type: cell-based; settings: 100 mM K+, 37° C., read-out: IC50, inhibition of the contraction due to K+ ions
Description: Calcium chloride was added in a volume of 250 μl to obtain a series of increasing concentrations of Ca^2+ ions ranging from 0.1 to 3.0 mM. The contractions of the arteries were recorded and a control series were thus established. The operation was repeated with the series of CA^2+ ions every 15 minutes and the preparation was washed four times after each series. When a stable response was obtained, the operation with the series of CA^2+ ions was performed in the presence of different concentrations of the test product, until a stable response was obtained.
The contractions of the arteries depend on the entry of Ca^2+ ions into the cells of the smooth muscles, and were caused by the depolarization of the smooth muscle by the K^+ ions and by the action of the noradrenaline released at presynaptic level. By starting the operation again with arteries denervated by the action of 6-OH-dopamine, the specific action due to noradrenaline was eliminated.

[6] = molecular target: T2, beta2-adrenergic receptors (Rattus norvegicus, UniProt P10608); assay: Affinity for beta2-adrenergic receptors ([3H]dihydroalprenolol binding, cerebella); settings: relative to propanolol, [3H]dihydroalprenolol 10^-9 M
T2 construct: The cerebella removed from the brains of male rats weighing 150 g on average were homogenized; from tissue; host or cells: rat cerebellum, crude membrane fraction
T2 sequence (P10608 whole entry): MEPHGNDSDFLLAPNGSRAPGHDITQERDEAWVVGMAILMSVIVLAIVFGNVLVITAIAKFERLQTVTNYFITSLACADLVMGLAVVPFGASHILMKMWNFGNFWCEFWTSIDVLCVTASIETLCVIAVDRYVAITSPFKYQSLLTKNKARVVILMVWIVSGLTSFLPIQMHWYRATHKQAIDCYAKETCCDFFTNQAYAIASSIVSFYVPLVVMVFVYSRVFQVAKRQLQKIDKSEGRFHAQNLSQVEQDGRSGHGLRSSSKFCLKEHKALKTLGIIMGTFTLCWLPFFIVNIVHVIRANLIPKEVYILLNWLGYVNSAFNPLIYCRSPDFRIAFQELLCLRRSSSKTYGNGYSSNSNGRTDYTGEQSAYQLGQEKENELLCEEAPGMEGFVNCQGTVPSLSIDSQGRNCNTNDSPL
Description: as §1, with “The technique was modelled on” for “The technique is modelled on”, “et al [Science, Vol. 198,” for “et al [Science., Vol. 198,”, “849-851 (1977)]. The cerebella removed from” for “849-851 (1977)]. 10 cortexes removed from”, “ml of suspension were” for “ml of the suspension were”, “of [^3 H]dihydroalprenolol at a” for “of [^3 H] dihydroalprenolol at a”, “binding, with non-radio active propranolol at a” for “binding, with non-radioactive propanolol at a”
The radioactivity of the filters was measured by liquid scintillation. The affinity of the test product for beta2 -adrenergic receptors was given relative to propanolol as the reference product.
as §2
CX=concentration of the test product inhibiting 50% of the specific binding of [^3 H]dihydroalprenolol.
The relative affinity is given by the relation ARL=100 CD/CX

[7] = iv, read-out: Percentage extension of the time of appearance of disturbances of the cardiac rhythm
[8] = read-out: Percentage of prolongation in the time

Structure (SMILES) | variation of the arterial blood pressure, 5 mins after administration ([1]; 5 min) [percentage] | variation of the arterial blood pressure, 30 min. after administration ([1]; 30 min) [percentage] | change in vivo at 1 mg/kg [2, 7] [%] | change in vivo at 2.5 mg/kg [2, 7] [%] | change in vivo at 5 mg/kg [2, 7] [%] | ARL (relative affinity for beta1-adrenergic receptors) [3] [%] | LD0 (maximum dose not causing any mortality in 8 days) [4] [mg/kg] | IC50 [5] [µM] | ARL (relative affinity for beta2-adrenergic receptors, 100 CD/CX) [6] [%] | change in vivo at 2.5 mg/kg [2, 8] [%] | change in vivo at 5 mg/kg [2, 8] [%] | change in vivo at 10 mg/kg [2, 8] [%]
CC(C)(C)NCC(O)COc1ccccc1C(=O)Nc1cccc2[nH]ccc12 (centres unmarked) [Example 17, 2-[3-[(1,1-dimethylethyl)amino]-2-hydroxypropoxy]-N-(1H-indol-4-yl) benzamide benzoate] | -55 | -13 | – | – | – | – | – | – | – | – | – | –
CCC(C)(C)NCC(O)COc1ccccc1C(=O)Nc1cccc2[nH]ccc12 (centres unmarked) [Example 28, 2-[3-[(1,1-dimethylpropyl)amino]-2-hydroxypropoxy]-N-(1H-indol-4-yl) benzamide] | – | – | 14 | 54 | 95 | 28 | > 400 | 2.5 | 15 | – | – | –
Cn1ccc2c(NC(=O)c3ccccc3OCC(O)CNC(C)(C)C)cccc21 (centres unmarked) [Example 34, 2-[3-[1,1-Dimethylethylamino]-2-hydroxypropoxy]-N-(1-methyl-1H-indol-4-yl) benzamide] | – | – | – | – | – | 44 | 80 | 8.8 | 81 | 12 | 43 | 125
CCC(C)(C)NCC(O)COc1ccccc1C(=O)Nc1cccc2[nH]ccc12.O=C(O)c1ccccc1 (centres unmarked) [Example 48, 2-[3-[(1,1-Dimethylpropyl)amino]-2-hydroxypropoxy]-N-(1H-indol-4-yl)benzamide benzoate] | – | – | – | – | – | 20 | – | – | 27 | 53 | 79 | –
